Data: patent US6989362B1, “Methods of treating dopamine dysregulation using agents that regulate phosphorylation/dephosphorylation in dopamine signaling” (The Rockefeller University, priority 1999, dated 2006)

Key:
D1 receptor = test: D1 agonist-induced phosphorylation of PKA substrates in striatal slices; format: cell-based, mouse; settings: 1 μM, 10 min
Experimental: Dopamine achieves many of its effects in neurons by activation of the D1 class of dopamine receptors, which are positively coupled to the activation of PKA. […] For this purpose, the state of phosphorylation of GluR1, DARPP-32, ARPP-21, and ARPP-16 was determined using phosphorylation state-specific antibodies. […] No significant difference was observed between wildtype and p35^−/− mice in basal levels of phosphorylation of any of these substrates.

Cdk5 [1] = test: Cocaine-induced locomotor activity with intra-accumbens infusion of Cdk5 inhibitors; format: in vivo, rat; settings: rats, intra-accumbens 40 nmol/0.5 μl
Experimental: Doses of cocaine hydrochloride (15 mg/kg i.p. in sterile 0.9% sodium chloride) were chosen to produce a moderate response to cocaine over successive days. […] Drugs were dissolved in sterile phosphate buffered saline containing 50% DMSO. Intracerebral microinfusions were made bilaterally in volumes of 0.5 μl over a period of 2 min with an additional 2 min allowed to elapse prior to removal of the infusion needles and replacement of the stylettes. […] Drugs were given at the same time each day. Subjects were then placed into the chambers and activity was monitored for 60 min.

Cdk5 [2] = test: Cdk5 mRNA and protein levels in striatum after chronic cocaine; format: in vivo, rat
Description: FIGS. 8A-8C show the increased expression of Cdk5 in inducible transgenic mice overexpressing ΔFosB and in rats chronically treated with cocaine. […] The positions of oligonucleotides encoding ΔFosB and Cdk5 are indicated. […] Representative labelings are shown for sections from inducible transgenic mice on (Dox) or off doxycycline (H2O) (left) and rats treated chronically with saline or cocaine (right). Quantitation of signals in the caudatoputaman (CP) and nucleus accumbens (NA) are shown. […] Representative Cdk5 immunoblots of striatal tissue dissected from inducible transgenic mice on or off doxycycline (left) and from rats treated chronically with saline or cocaine (right) are shown with quantitation. Data represent means ±SEM for n=6; *p<0.05 compared to control, Student's t test.
ΔFosB-inducible transgenic mice were either fed […] doxycycline or denied doxycycline for 12 weeks. Adult male Sprague-Dawley rats initially weighing between 160-240 g were injected with cocaine or vehicle (i.p., 20 mg/kg, […]) at the same time each day for 8 days. All analyses were initiated 12 hr after the final dose. For in situ hybridization studies, [α-^35S]UTP-labeled riboprobes were prepared by in vitro transcription from cDNA clones corresponding to full-length clones of rat Cdk5 [Zheng et al., J. Neurobiol. 35:141-159 (1998)]. Cryostat sections were prepared and hybridized as previously described. After hybridization, the sections were exposed to Biomax MR film (Kodak) for 2-6 days. All autoradiograms were analyzed with a Microcomputer Imaging Device system (M4, Imaging Research, Inc.) as described elsewhere [Le Moine and Bloch, J. Comp. Neurol. 355:418426 (1995)]. Statistical analyses of the data were performed using two-tailed unpaired Student's t test. Striatal tissue was rapidly dissected on ice and homogenized in boiling lysis buffer containing 1% SDS and 50 mM sodium flouride with sonication. Striatal slice preparation and treatment were conducted as previously described [Example 1, Bibb et al., Nature 402:669-671 (1999); Nishi et al., J. Neurosci 17:8147-8155 (1997)]. […]

mouse striatal slices = test: Phosphorylation of PKA substrates in striatal slices treated with roscovitine; settings: 10 μM, 1 h
[3] = test system: dissociated striatal neurons; test: Whole-cell voltage-gated Ca2+ current, patch-clamp of dissociated striatal neurons; format: cell-based, mouse; settings: 10 μM
Experimental: The physiological consequence of PKA inhibition by phospho-Thr75 DARPP-32 was also assessed. […] Opin. Neurobiol. 8:330-334 (1998)], were analyzed using patch-clamp recordings of dissociated striatal neurons (FIGS. 3g and 3h). […] This effect was virtually abolished in neurons from DARPP-32 knockout mice (1.6±0.3%, n=5, p<0.01, paired t test).

[4] = rats, 20 mg/kg i.p. daily for 8 days, in situ hybridization

In the case of `Oc1cc2c(c(Cl)c1O)CCNCC2c1ccccc1` (stereo not drawn) [SKF 81297], the “phosphorylation of GluR1, DARPP-32, ARPP-21 and ARPP-16 (PKA sites)” value (D1 receptor; p35−/− mouse striatal slices, versus wildtype) was “to an even greater extent” and the “phosphorylation of GluR1, DARPP-32, ARPP-21 and ARPP-16 (PKA sites)” value (D1 receptor; wildtype mouse striatal slices) was “increased”.
With `Cn1cnc2nc(NCCO)nc(NCc3ccccc3)c21` [iso-olomoucine] the “locomotor or stereotypic responses to cocaine” value (Cdk5 [1]) was “failed to enhance”.
With `COC(=O)[C@H]1[C@@H](OC(=O)c2ccccc2)C[C@@H]2CC[C@H]1N2C` [cocaine] the “Cdk5 protein levels in striatal tissue versus control” value (Cdk5 [2]; rats exposed chronically, immunoblot) was 180±20%, the “Cdk5 mRNA levels in caudatoputamen versus saline” value (Cdk5 [2]; [4]) was 151.8±11.8% and the “Cdk5 mRNA levels in nucleus accumbens versus saline” value (Cdk5 [2]; [4]) was 150.5±10.0%.
`CC[C@H](CO)Nc1nc(NCc2ccccc2)c2ncn(C(C)C)c2n1` [roscovitine] was tested, and the “increase in phospho-Ser845 GluR1” value (mouse striatal slices; striatal slices from DARPP-32−/− mice) was “not observed”, the “Total GluR1 levels” value (mouse striatal slices; striatal slices) was “unaffected” and the “increase in phosphorylation of ARPP-16 (phospho-Ser88)” value (mouse striatal slices; wildtype mouse striatal slices) was 2.5±0.2 fold. For the same compound, the “increase in phosphorylation of GluR1 (phospho-Ser845)” value (mouse striatal slices; wildtype mouse striatal slices) was 3.2±0.5 fold, the “enhancement of whole-cell Ca2+ current” value ([3]; neurons from DARPP-32 knockout mice) was 1.6±0.3% and the “enhancement of whole-cell Ca2+ current” value ([3]; wildtype neurons) was 9.7% ±1.0%.
